According to the kinase profiling compilation of Christmann-Franck et al. (2016):

Columns and labels:
Experiment in all cases: radiometric filter-binding kinase assay
PRKCZ (human) = PRKCZ (human) (UniProt Q05513)
ROCK2 (rat) = details: accession and sequence are those of the human protein
CAMKK2 (human) = CAMKK2 (human) (UniProt Q96RR4)
PLK1 (human) = PLK1 (human) (UniProt P53350)
INSR (human) = INSR (human) (UniProt P06213)
[1] = system: AKT2 (human), P31751 [S474D]
IGF1R (human) = IGF1R (human) (UniProt P08069)
MARK4 (human) = MARK4 (human) (UniProt Q96L34)
YES1 (human) = YES1 (human) (UniProt P07947)
GSK3B (human) = GSK3B (human) (UniProt P49841)
Sequence of GSK3B (human) (P49841 whole entry, looked up): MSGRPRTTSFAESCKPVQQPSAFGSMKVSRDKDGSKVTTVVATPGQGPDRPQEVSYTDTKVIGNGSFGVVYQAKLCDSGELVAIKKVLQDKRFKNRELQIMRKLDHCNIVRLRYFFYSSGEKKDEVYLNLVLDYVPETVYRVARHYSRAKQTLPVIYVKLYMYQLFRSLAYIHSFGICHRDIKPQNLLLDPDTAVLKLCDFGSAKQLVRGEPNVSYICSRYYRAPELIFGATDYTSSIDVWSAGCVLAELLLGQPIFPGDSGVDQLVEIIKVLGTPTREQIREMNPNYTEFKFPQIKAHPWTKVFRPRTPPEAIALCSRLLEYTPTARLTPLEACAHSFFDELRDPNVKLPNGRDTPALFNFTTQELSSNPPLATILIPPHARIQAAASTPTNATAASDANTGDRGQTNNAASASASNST

HIPK1 (human) = HIPK1 (human) (UniProt Q86Z02)
PAK7 (human) = PAK7 (human) (UniProt Q9P286)
EPHB1 (human) = EPHB1 (human) (UniProt P54762)
EPHB4 (human) = EPHB4 (human) (UniProt P54760)
MAP3K9 (human) = MAP3K9 (human) (UniProt P80192)
LCK (mouse) = details: accession and sequence are those of the human protein
MAPK13 (human) = MAPK13 (human) (UniProt O15264)
Sequence of MAPK13 (human) (O15264 whole entry, looked up): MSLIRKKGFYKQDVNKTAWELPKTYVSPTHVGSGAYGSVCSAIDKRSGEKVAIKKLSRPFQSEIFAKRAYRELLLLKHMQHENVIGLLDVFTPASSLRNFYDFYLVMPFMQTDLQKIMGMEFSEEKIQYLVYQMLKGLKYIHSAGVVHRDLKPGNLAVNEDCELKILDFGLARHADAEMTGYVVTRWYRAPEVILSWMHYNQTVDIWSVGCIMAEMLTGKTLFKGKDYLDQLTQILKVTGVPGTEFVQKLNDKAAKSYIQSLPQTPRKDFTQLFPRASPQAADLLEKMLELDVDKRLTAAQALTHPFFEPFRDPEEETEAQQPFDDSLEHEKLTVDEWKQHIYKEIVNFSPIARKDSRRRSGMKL

MAP3K7 TAB1 (human) = MAP3K7 TAB1 (human) (UniProt Q15750+O43318); details: compound 10.0 µM
PAK6 (human) = PAK6 (human) (UniProt Q9NQU5)
RPS6KA5 KD1 KD2 (human) = RPS6KA5 KD1 KD2 (human) (UniProt O75582)
Sequence of RPS6KA5 KD1 KD2 (human) (O75582 whole entry, looked up): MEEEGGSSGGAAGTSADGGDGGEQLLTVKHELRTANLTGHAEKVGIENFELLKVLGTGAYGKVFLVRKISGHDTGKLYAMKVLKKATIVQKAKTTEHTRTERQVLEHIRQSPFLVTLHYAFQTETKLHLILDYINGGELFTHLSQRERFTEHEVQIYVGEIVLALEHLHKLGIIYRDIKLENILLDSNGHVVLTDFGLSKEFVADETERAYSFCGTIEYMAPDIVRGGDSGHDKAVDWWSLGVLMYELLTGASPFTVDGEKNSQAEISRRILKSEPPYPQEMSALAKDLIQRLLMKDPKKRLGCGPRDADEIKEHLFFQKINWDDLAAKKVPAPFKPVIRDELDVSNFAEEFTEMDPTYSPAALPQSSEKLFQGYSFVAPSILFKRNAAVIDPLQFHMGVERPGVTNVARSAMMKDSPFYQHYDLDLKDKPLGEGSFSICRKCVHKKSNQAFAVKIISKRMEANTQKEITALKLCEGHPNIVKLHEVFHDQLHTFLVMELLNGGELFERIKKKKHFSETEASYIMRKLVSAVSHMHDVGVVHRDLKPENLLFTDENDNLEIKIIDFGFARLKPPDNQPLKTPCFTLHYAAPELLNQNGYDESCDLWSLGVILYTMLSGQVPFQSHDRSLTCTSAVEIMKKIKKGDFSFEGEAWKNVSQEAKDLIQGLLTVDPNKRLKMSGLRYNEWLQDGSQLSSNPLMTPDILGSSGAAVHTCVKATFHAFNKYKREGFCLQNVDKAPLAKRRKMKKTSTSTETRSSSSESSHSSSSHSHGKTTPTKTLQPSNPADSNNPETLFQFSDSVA

EPHB3 (human) = EPHB3 (human) (UniProt P54753); details: compound 50.0 µM
PRKAA1 or PRKAA2 (rat) = details: accession and sequence are those of the human protein
DAPK1 (human) = DAPK1 (human) (UniProt P53355)
SYK (human) = SYK (human) (UniProt P43405)
EPHA4 (human) = EPHA4 (human) (UniProt P54764)
Sequence of EPHA4 (human) (P54764 whole entry, looked up): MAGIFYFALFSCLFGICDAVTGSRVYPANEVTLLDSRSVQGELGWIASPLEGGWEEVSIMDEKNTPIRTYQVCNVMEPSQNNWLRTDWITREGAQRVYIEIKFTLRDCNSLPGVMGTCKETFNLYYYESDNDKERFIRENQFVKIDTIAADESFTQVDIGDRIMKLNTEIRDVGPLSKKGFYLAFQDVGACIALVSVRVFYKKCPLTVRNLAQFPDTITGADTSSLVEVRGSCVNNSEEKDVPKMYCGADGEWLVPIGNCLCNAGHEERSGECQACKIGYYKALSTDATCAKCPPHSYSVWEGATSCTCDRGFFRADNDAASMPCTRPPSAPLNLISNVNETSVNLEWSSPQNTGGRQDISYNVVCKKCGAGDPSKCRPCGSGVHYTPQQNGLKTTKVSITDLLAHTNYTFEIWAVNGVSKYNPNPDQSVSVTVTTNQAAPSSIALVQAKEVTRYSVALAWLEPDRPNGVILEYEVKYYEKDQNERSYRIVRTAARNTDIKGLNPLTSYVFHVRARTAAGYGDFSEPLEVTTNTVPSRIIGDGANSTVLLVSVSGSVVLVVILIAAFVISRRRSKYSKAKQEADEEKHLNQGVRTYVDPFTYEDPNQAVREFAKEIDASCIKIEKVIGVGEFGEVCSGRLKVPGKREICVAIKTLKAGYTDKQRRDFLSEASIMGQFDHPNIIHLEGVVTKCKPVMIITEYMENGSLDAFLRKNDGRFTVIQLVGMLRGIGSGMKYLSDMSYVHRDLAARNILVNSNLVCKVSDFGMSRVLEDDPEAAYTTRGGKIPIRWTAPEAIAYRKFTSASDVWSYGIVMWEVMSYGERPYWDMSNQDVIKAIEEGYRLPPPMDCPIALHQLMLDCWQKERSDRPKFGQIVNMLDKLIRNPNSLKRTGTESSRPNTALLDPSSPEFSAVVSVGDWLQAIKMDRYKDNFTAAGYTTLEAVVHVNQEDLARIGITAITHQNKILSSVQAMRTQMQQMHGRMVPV

MAP3K1 (human) = MAP3K1 (human) (UniProt Q13233)
CLK2 (human) = CLK2 (human) (UniProt P49760)
Sequence of CLK2 (human) (P49760 whole entry, looked up): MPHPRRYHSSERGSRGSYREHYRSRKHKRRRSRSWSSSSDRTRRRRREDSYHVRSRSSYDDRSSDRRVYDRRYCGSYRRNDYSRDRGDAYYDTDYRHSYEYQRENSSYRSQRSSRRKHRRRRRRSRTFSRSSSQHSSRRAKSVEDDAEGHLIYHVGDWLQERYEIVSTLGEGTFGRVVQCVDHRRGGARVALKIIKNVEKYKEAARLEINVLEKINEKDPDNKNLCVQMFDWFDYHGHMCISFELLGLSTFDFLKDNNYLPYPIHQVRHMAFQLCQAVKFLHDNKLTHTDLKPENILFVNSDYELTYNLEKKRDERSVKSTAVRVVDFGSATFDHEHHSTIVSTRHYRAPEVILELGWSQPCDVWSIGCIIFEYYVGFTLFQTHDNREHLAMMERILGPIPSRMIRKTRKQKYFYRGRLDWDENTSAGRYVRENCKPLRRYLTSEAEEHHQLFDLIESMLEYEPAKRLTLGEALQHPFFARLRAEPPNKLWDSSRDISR

HIPK2 (human) = HIPK2 (human) (UniProt Q9H2X6)
HIPK3 (human) = HIPK3 (human) (UniProt Q9H422)
MAP3K5 (human) = MAP3K5 (human) (UniProt Q99683)
MAPK11 (human) = MAPK11 (human) (UniProt Q15759)
Sequence of MAPK11 (human) (Q15759 whole entry, looked up): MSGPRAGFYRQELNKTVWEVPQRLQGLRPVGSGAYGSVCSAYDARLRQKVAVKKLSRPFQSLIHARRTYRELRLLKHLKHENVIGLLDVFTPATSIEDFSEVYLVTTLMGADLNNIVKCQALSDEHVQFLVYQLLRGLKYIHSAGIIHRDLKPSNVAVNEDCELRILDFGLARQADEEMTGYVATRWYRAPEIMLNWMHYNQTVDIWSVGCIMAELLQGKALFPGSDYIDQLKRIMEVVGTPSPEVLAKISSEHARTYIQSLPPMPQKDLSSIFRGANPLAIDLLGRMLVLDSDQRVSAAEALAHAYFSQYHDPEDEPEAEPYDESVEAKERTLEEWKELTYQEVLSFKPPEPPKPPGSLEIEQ

CSK (human) = CSK (human) (UniProt P41240)
MAPK1 (human) = MAPK1 (human) (UniProt P28482)
Sequence of MAPK1 (human) (P28482 whole entry, looked up): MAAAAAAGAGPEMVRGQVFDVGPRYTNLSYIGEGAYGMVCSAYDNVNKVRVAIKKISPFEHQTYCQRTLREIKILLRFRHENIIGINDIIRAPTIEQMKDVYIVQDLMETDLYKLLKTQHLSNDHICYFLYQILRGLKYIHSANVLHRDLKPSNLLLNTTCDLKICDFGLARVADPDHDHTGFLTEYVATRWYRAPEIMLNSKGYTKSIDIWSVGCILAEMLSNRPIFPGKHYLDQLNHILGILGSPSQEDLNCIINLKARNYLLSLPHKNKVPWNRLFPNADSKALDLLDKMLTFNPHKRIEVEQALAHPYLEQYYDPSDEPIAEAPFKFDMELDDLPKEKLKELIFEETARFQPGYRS

PKN2 (human) = PKN2 (human) (UniProt Q16513)
SRC (human) = SRC (human) (UniProt P12931)
Sequence of SRC (human) (P12931 whole entry, looked up): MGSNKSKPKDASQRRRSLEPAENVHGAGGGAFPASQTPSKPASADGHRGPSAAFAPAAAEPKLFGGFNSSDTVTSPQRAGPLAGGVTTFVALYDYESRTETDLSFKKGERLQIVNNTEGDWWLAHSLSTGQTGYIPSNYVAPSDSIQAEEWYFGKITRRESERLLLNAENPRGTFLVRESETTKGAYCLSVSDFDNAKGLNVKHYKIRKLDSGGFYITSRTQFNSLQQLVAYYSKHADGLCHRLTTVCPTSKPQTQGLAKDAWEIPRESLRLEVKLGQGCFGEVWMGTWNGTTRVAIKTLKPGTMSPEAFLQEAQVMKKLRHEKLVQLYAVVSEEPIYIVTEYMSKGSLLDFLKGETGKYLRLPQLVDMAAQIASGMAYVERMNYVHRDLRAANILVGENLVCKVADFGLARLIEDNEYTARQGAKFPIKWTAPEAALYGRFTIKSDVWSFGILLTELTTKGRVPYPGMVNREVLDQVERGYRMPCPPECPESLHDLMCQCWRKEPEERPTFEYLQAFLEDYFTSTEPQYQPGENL

Sequence of PLK1 (human) (P53350 whole entry, looked up): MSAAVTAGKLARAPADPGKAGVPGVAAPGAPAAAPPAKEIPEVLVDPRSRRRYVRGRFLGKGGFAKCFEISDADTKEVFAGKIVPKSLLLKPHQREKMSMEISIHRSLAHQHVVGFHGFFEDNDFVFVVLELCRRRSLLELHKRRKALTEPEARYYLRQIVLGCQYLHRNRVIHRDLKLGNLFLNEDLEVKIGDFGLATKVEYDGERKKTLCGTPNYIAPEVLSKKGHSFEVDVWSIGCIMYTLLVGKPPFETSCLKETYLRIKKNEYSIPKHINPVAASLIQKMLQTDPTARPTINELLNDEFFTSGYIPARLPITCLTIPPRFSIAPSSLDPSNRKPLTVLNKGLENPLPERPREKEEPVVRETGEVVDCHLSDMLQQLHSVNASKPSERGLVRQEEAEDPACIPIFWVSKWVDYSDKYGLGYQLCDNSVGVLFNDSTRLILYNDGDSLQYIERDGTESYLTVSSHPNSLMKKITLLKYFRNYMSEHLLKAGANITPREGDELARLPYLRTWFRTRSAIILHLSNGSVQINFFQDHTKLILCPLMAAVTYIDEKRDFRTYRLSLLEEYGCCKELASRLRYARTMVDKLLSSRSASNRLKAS

- residual activity (PRKCZ (human); compound 10.0 µM): 101%
- residual activity (PRKCZ (human); compound 50.0 µM): 93%
- residual activity (ROCK2 (rat); compound 1.0 µM): 84%
- residual activity (ROCK2 (rat); compound 10.0 µM): 97%
- residual activity (ROCK2 (rat); compound 50.0 µM): 89%
- residual activity (CAMKK2 (human); compound 10.0 µM): 98%
- residual activity (CAMKK2 (human); compound 50.0 µM): 104%
- residual activity (PLK1 (human); compound 1.0 µM): 97%
- residual activity (PLK1 (human); compound 10.0 µM): 95%
- residual activity (PLK1 (human); compound 50.0 µM): 93%
- residual activity (INSR (human); compound 10.0 µM): 66%
- residual activity (INSR (human); compound 50.0 µM): 77%
- residual activity ([1]; compound 10.0 µM): 86%
- residual activity ([1]; compound 50.0 µM): 80%
- residual activity (IGF1R (human); compound 10.0 µM): 76%
- residual activity (IGF1R (human); compound 50.0 µM): 56%
- residual activity (MARK4 (human); compound 10.0 µM): 106%
- residual activity (MARK4 (human); compound 50.0 µM): 106%
- residual activity (YES1 (human); compound 10.0 µM): 91%
- residual activity (YES1 (human); compound 50.0 µM): 102%
- residual activity (GSK3B (human); compound 1.0 µM): 74%
- residual activity (GSK3B (human); compound 10.0 µM): 79%
- residual activity (GSK3B (human); compound 50.0 µM): 76%
- residual activity (HIPK1 (human); compound 10.0 µM): 84%
- residual activity (HIPK1 (human); compound 50.0 µM): 94%
- residual activity (PAK7 (human); compound 10.0 µM): 101%
- residual activity (PAK7 (human); compound 50.0 µM): 90%
- residual activity (EPHB1 (human); compound 10.0 µM): 107%
- residual activity (EPHB1 (human); compound 50.0 µM): 106%
- residual activity (EPHB4 (human); compound 10.0 µM): 98%
- residual activity (EPHB4 (human); compound 50.0 µM): 97%
- residual activity (MAP3K9 (human); compound 10.0 µM): 94%
- residual activity (MAP3K9 (human); compound 50.0 µM): 102%
- residual activity (LCK (mouse); compound 1.0 µM): 84%
- residual activity (LCK (mouse); compound 50.0 µM): 106%
- residual activity (MAPK13 (human); compound 1.0 µM): 106%
- residual activity (MAPK13 (human); compound 10.0 µM): 95%
- residual activity (MAPK13 (human); compound 50.0 µM): 92%
- residual activity (MAP3K7 TAB1 (human)): 92%
- residual activity (PAK6 (human); compound 10.0 µM): 95%
- residual activity (PAK6 (human); compound 50.0 µM): 104%
- residual activity (RPS6KA5 KD1 KD2 (human); compound 1.0 µM): 94%
- residual activity (RPS6KA5 KD1 KD2 (human); compound 10.0 µM): 86%
- residual activity (RPS6KA5 KD1 KD2 (human); compound 50.0 µM): 91%
- residual activity (EPHB3 (human)): 96%
- residual activity (PRKAA1 or PRKAA2 (rat); compound 1.0 µM): 98%
- residual activity (PRKAA1 or PRKAA2 (rat); compound 10.0 µM): 94%
- residual activity (PRKAA1 or PRKAA2 (rat); compound 50.0 µM): 91%
- residual activity (DAPK1 (human); compound 10.0 µM): 97%
- residual activity (DAPK1 (human); compound 50.0 µM): 94%
- residual activity (SYK (human); compound 10.0 µM): 100%
- residual activity (SYK (human); compound 50.0 µM): 98%
- residual activity (EPHA4 (human); compound 10.0 µM): 117%
- residual activity (EPHA4 (human); compound 50.0 µM): 104%
- residual activity (MAP3K1 (human); compound 10.0 µM): 107%
- residual activity (MAP3K1 (human); compound 50.0 µM): 96%
- residual activity (CLK2 (human); compound 10.0 µM): 90%
- residual activity (CLK2 (human); compound 50.0 µM): 86%
- residual activity (HIPK2 (human); compound 10.0 µM): 86%
- residual activity (HIPK2 (human); compound 50.0 µM): 92%
- residual activity (HIPK3 (human); compound 10.0 µM): 89%
- residual activity (HIPK3 (human); compound 50.0 µM): 97%
- residual activity (MAP3K5 (human); compound 10.0 µM): 92%
- residual activity (MAP3K5 (human); compound 50.0 µM): 83%
- residual activity (MAPK11 (human); compound 1.0 µM): 82%
- residual activity (MAPK11 (human); compound 10.0 µM): 91%
- residual activity (MAPK11 (human); compound 50.0 µM): 106%
- residual activity (CSK (human); compound 10.0 µM): 91%
- residual activity (CSK (human); compound 50.0 µM): 93%
- residual activity (MAPK1 (human); compound 1.0 µM): 98%
- residual activity (MAPK1 (human); compound 10.0 µM): 77%
- residual activity (MAPK1 (human); compound 50.0 µM): 80%
- residual activity (PKN2 (human); compound 1.0 µM): 83%
- residual activity (PKN2 (human); compound 10.0 µM): 106%
- residual activity (SRC (human); compound 1.0 µM): 100%
- residual activity (SRC (human); compound 10.0 µM): 87%
- residual activity (SRC (human); compound 50.0 µM): 94%
Compound: CCCC(CCC)C(=O)O
